Measurements: patent US20100298141A1, “SUBSTITUTED PYRIDINE N-OXIDE HERBICIDES” (E. I. DU PONT DE NEMOURS AND COMPANY, priority 2007, published 2010)

What was measured:
[1] = tested on: wheat; assay: Test C pre-/postemergence test; assay type: in vivo, Triticum aestivum; details: Preemergence; for Wheat plant response rating: 62 g ai/ha, scale 0 to 100; for Plant response rating, Wheat: 31 g ai/ha, scale 0 to 100 (0 no effect, 100 complete control)
Summary of the method: (§1)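 Seeds were planted and treated preemergence with test chemical in a non-phytotoxic solvent mixture containing surfactant. Postemergence applications of the same formulation went onto plants 2 to 18 cm tall (1- to 4-leaf stage). A dash marks no test result.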

[2] = tested on: bermudagrass; assay: Test C pre-/postemergence test; assay type: in vivo, Cynodon dactylon; details: for Plant response rating, Bermudagrass: 31 g ai/ha; for Plant response rating (0 to 100), Bermudagrass: 250 g ai/ha
Summary of the method: as §1

[3] = tested on: kochia; assay: Test C pre-/postemergence test; assay type: in vivo, Kochia scoparia; details: Preemergence; for Kochia plant response rating: 62 g ai/ha, scale 0 to 100; for Plant response rating, Kochia: 31 g ai/ha, scale 0 to 100 (0 no effect, 100 complete control)
Summary of the method: as §1

[4] = tested on: corn; assay: Test A pre-/postemergence greenhouse test; assay type: in vivo, Zea mays; details: for Corn plant response rating: 0 to 100 scale; for Plant response rating, Corn: 0 to 100 scale where 0 is no effect and 100 is complete control
Summary of the method: (§2)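 Herbicidal effect is a visual injury score given about ten days post-treatment by comparison with untreated controls. Preemergence plots received a directed spray onto sown loam–sand soil; postemergence plants, at the one- to two-leaf stage and 2–10 cm tall, were sprayed at the same time.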

[5] = tested on: johnsongrass; assay: Test C pre-/postemergence test; assay type: in vivo, Sorghum halepense; details: Preemergence; for Johnsongrass plant response rating: 62 g ai/ha, scale 0 to 100; for Plant response rating, Johnsongrass: 31 g ai/ha, scale 0 to 100 (0 no effect, 100 complete control); for Plant response rating (0 to 100), Johnsongrass: 250 g ai/ha
Summary of the method: as §1

[6] = tested on: yellow nutsedge; assay: Test C pre-/postemergence test; assay type: in vivo, Cyperus esculentus; details: Preemergence; for Nutsedge, Yellow plant response rating: 62 g ai/ha, scale 0 to 100; for Plant response rating, Nutsedge, Yellow: 31 g ai/ha, scale 0 to 100 (0 no effect, 100 complete control)
Summary of the method: as §1

[7] = tested on: morningglory; assay: Test C pre-/postemergence test; assay type: in vivo, Ipomoea coccinea; details: Preemergence; for Morningglory plant response rating: 62 g ai/ha, scale 0 to 100; for Plant response rating, Morningglory: 31 g ai/ha, scale 0 to 100 (0 no effect, 100 complete control)
Summary of the method: as §1

[8] = tested on: cocklebur; assay: Test C pre-/postemergence test; assay type: in vivo, Xanthium strumarium; details: for Plant response rating, Cocklebur: 31 g ai/ha, scale 0 to 100 (0 no effect, 100 complete control); for Plant response rating (0 to 100), Cocklebur: 250 g ai/ha
Summary of the method: as §1

[9] = tested on: rice; assay: Test C flooded paddy test; assay type: in vivo, Oryza sativa; details: Flood
Summary of the method: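 Visual injury ratings against untreated controls, taken 13 to 15 days after compound was added to paddy water standing 3 cm above the soil.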

[10] = tested on: common (oilseed) sunflower; assay: Test C pre-/postemergence test; assay type: in vivo, Helianthus annuus; details: Preemergence; for Sunflower plant response rating: 62 g ai/ha, scale 0 to 100; for Plant response rating, Sunflower: 31 g ai/ha, scale 0 to 100 (0 no effect, 100 complete control)
Summary of the method: as §1

[11] = tested on: corn; assay: Test C pre-/postemergence test; assay type: in vivo, Zea mays; details: for Plant response rating, Corn: 31 g ai/ha, scale 0 to 100 (0 no effect, 100 complete control); for Plant response rating (0 to 100), Corn: 250 g ai/ha
Summary of the method: as §1

[12] = tested on: morningglory; assay: Test A pre-/postemergence greenhouse test; assay type: in vivo, Ipomoea spp.; details: for Morningglory plant response rating: 0 to 100 scale; for Plant response rating, Morningglory: 0 to 100 scale where 0 is no effect and 100 is complete control
Summary of the method: as §2

[13] = tested on: wild oat; assay: Test C pre-/postemergence test; assay type: in vivo, Avena fatua; details: Preemergence; for Oat, Wild plant response rating: 62 g ai/ha, scale 0 to 100; for Plant response rating, Oat, Wild: 31 g ai/ha, scale 0 to 100 (0 no effect, 100 complete control)
Summary of the method: as §1

[14] = tested on: eastern black nightshade; assay: Test C pre-/postemergence test; assay type: in vivo, Solanum ptycanthum; details: Preemergence; for Nightshade plant response rating: 62 g ai/ha, scale 0 to 100; for Plant response rating, Nightshade: 31 g ai/ha, scale 0 to 100 (0 no effect, 100 complete control)
Summary of the method: as §1

[15] = tested on: Italian ryegrass; assay: Test C pre-/postemergence test; assay type: in vivo, Lolium multiflorum; details: Preemergence; for Ryegrass, Italian plant response rating: 62 g ai/ha, scale 0 to 100; for Plant response rating, Ryegrass, Italian: 31 g ai/ha, scale 0 to 100 (0 no effect, 100 complete control)
Summary of the method: as §1

[16] = tested on: giant foxtail; assay: Test C pre-/postemergence test; assay type: in vivo, Setaria faberii; details: Preemergence; for Foxtail, Giant plant response rating: 62 g ai/ha, scale 0 to 100; for Plant response rating, Foxtail, Giant: 31 g ai/ha, scale 0 to 100 (0 no effect, 100 complete control); for Plant response rating (0 to 100), Foxtail, Giant: 250 g ai/ha
Summary of the method: as §1

[17] = tested on: redroot pigweed; assay: Test A pre-/postemergence greenhouse test; assay type: in vivo, Amaranthus retroflexus; details: for Pigweed plant response rating: 0 to 100 scale; for Plant response rating, Pigweed: 0 to 100 scale where 0 is no effect and 100 is complete control
Summary of the method: as §2

[18] = 62 g ai/ha, Preemergence, scale 0 to 100 (0 no effect, 100 complete control)
[19] = Preemergence, scale 0 to 100 (0 no effect, 100 complete control)
[20] = preemergence, 125 g ai/ha, scale 0 (no effect) to 100 (complete control)
[21] = Postemergence, 125 g ai/ha, 0 is no effect, 100 is complete control
[22] = Postemergence, 500 g ai/ha, 0 is no effect, 100 is complete control
[23] = Preemergence, 125 g ai/ha, 0 no effect, 100 complete control
[24] = 62 g ai/ha, Preemergence, scale 0 to 100
[25] = 31 g ai/ha, scale 0 to 100 (0 no effect, 100 complete control)
[26] = 62 g ai/ha, scale 0 to 100, 0 no effect, 100 complete control, 13 to 15 days
[27] = 125 g ai/ha, scale 0 to 100, 0 no effect, 100 complete control, 13 to 15 days

Compound: Cn1nc(C(F)(F)F)c(C[S+]([O-])c2cccc[n+]2[O-])c1OCC(F)(F)F (racemic) [Compound 28]
- Wheat plant response rating [1]: 40
- Plant response rating, Wheat [1]: 0
- Bermudagrass plant response rating [2, 18]: 100
- Plant response rating, Bermudagrass [2, 19]: 100
- Plant response rating (0 to 100), Bermudagrass ([2]; Preemergence): 100
- Bermudagrass plant response rating [2, 20]: 100
- Kochia plant response rating [3]: 100
- Plant response rating, Kochia [3]: 100
- Corn plant response rating [4, 21]: 60
- Corn plant response rating [4, 22]: 70
- Corn plant response rating [4, 23]: 0
- Plant response rating, Corn ([4]; Preemergence, 500 g ai/ha): 80
- Johnsongrass plant response rating [5]: 100
- Plant response rating, Johnsongrass [5]: 85
- Plant response rating (0 to 100), Johnsongrass [5]: 100
- Nutsedge, Yellow plant response rating [6]: 80
- Plant response rating, Nutsedge, Yellow [6]: 80
- Morningglory plant response rating [7]: 100
- Plant response rating, Morningglory [7]: 40
- Cocklebur plant response rating [8, 24]: 10
- Plant response rating, Cocklebur ([8]; Preemergence): 0
- Plant response rating (0 to 100), Cocklebur ([8]; Preemergence): 65
- Cocklebur plant response rating [8, 20]: 50
- Plant response rating, Rice [9, 25]: 0
- Plant response rating, Rice [9, 26]: 25
- Plant response rating, Rice [9, 27]: 65
- Plant response rating, Rice ([9]; 250 g ai/ha, scale 0 to 100 (0 no effect, 100 complete control)): 80
- Sunflower plant response rating [10]: 85
- Plant response rating, Sunflower [10]: 50
- Corn plant response rating [11, 24]: 85
- Plant response rating, Corn ([11]; Preemergence): 30
- Plant response rating (0 to 100), Corn ([11]; Preemergence): 100
- Corn plant response rating [11, 20]: 100
- Morningglory plant response rating [12, 21]: 60
- Morningglory plant response rating [12, 22]: 80
- Morningglory plant response rating [12, 23]: 60
- Plant response rating, Morningglory ([12]; Preemergence, 500 g ai/ha): 90
- Oat, Wild plant response rating [13]: 75
- Plant response rating, Oat, Wild [13]: 70
- Nightshade plant response rating [14]: 100
- Plant response rating, Nightshade [14]: 90
- Ryegrass, Italian plant response rating [15]: 85
- Plant response rating, Ryegrass, Italian [15]: 80
- Foxtail, Giant plant response rating [16]: 100
- Plant response rating, Foxtail, Giant [16]: 95
- Plant response rating (0 to 100), Foxtail, Giant [16]: 100
- Pigweed plant response rating [17, 21]: 70
- Pigweed plant response rating [17, 22]: 90
- Pigweed plant response rating [17, 23]: 100
- Plant response rating, Pigweed ([17]; Preemergence, 500 g ai/ha): 100

Compound: Cc1cc[n+]([O-])c([S+]([O-])Cc2c(C(F)(F)F)nn(C)c2OCC(F)(F)F)c1 (racemic) [Compound 30]
- Wheat plant response rating [1]: 25
- Plant response rating, Wheat [1]: 0
- Bermudagrass plant response rating [2, 18]: 100
- Plant response rating, Bermudagrass [2, 19]: 100
- Plant response rating (0 to 100), Bermudagrass ([2]; Preemergence): 100
- Bermudagrass plant response rating [2, 20]: 100
- Kochia plant response rating [3]: 100
- Plant response rating, Kochia [3]: 100
- Corn plant response rating [4, 21]: 50
- Corn plant response rating [4, 22]: 60
- Corn plant response rating [4, 23]: 0
- Plant response rating, Corn ([4]; Preemergence, 500 g ai/ha): 70
- Johnsongrass plant response rating [5]: 100
- Plant response rating, Johnsongrass [5]: 85
- Plant response rating (0 to 100), Johnsongrass [5]: 100
- Nutsedge, Yellow plant response rating [6]: 70
- Plant response rating, Nutsedge, Yellow [6]: 65
- Morningglory plant response rating [7]: 100
- Plant response rating, Morningglory [7]: 100
- Cocklebur plant response rating [8, 24]: 0
- Plant response rating, Cocklebur ([8]; Preemergence): 0
- Plant response rating (0 to 100), Cocklebur ([8]; Preemergence): 85
- Cocklebur plant response rating [8, 20]: 80
- Plant response rating, Rice [9, 25]: 0
- Plant response rating, Rice [9, 26]: 0
- Plant response rating, Rice [9, 27]: 20
- Plant response rating, Rice ([9]; 250 g ai/ha, scale 0 to 100, 0 no effect, 100 complete control, 13 to 15 days): 80
- Sunflower plant response rating [10]: 70
- Plant response rating, Sunflower [10]: 40
- Corn plant response rating [11, 24]: 40
- Plant response rating, Corn ([11]; Preemergence): 5
- Plant response rating (0 to 100), Corn ([11]; Preemergence): 98
- Corn plant response rating [11, 20]: 85
- Morningglory plant response rating [12, 21]: 70
- Morningglory plant response rating [12, 22]: 90
- Morningglory plant response rating [12, 23]: 100
- Plant response rating, Morningglory ([12]; Preemergence, 500 g ai/ha): 100
- Oat, Wild plant response rating [13]: 60
- Plant response rating, Oat, Wild [13]: 10
- Nightshade plant response rating [14]: 100
- Plant response rating, Nightshade [14]: 100
- Ryegrass, Italian plant response rating [15]: 70
- Plant response rating, Ryegrass, Italian [15]: 0
- Foxtail, Giant plant response rating [16]: 100
- Plant response rating, Foxtail, Giant [16]: 100
- Plant response rating (0 to 100), Foxtail, Giant [16]: 100
- Pigweed plant response rating [17, 21]: 90
- Pigweed plant response rating [17, 22]: 100
- Pigweed plant response rating [17, 23]: 100
- Plant response rating, Pigweed ([17]; Preemergence, 500 g ai/ha): 100
